Experimental findings from BindingDB's records for doi:10.1016/j.bmcl.2010.02.003 (Boehringer Ingelheim (Canada), 2010) are described below.

The target of experiment [1] is T1, Cytochrome P450 1A2 (Homo sapiens, UniProt P05177).
T1 sequence (P05177 whole entry): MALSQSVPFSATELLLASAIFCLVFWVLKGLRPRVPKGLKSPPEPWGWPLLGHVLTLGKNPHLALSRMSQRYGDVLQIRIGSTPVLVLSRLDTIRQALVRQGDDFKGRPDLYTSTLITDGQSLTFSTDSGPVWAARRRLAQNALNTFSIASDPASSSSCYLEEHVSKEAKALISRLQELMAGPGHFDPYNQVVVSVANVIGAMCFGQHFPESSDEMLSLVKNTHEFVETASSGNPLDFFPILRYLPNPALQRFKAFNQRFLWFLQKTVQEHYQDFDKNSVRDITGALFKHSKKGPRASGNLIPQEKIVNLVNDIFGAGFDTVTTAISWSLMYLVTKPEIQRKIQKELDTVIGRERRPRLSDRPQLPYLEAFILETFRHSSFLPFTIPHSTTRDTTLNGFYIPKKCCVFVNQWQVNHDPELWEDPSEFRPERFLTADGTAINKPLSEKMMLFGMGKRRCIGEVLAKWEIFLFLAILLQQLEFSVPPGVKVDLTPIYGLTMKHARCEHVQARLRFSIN
As to the kind of experiment: Inhibition of CYP1A2.

In experiment [2] the target is Cytochrome P450 3A4 (Homo sapiens, UniProt P08684). As to the kind of experiment: Inhibition of CYP3A4.
Cytochrome P450 3A4, sequence (P08684 whole entry): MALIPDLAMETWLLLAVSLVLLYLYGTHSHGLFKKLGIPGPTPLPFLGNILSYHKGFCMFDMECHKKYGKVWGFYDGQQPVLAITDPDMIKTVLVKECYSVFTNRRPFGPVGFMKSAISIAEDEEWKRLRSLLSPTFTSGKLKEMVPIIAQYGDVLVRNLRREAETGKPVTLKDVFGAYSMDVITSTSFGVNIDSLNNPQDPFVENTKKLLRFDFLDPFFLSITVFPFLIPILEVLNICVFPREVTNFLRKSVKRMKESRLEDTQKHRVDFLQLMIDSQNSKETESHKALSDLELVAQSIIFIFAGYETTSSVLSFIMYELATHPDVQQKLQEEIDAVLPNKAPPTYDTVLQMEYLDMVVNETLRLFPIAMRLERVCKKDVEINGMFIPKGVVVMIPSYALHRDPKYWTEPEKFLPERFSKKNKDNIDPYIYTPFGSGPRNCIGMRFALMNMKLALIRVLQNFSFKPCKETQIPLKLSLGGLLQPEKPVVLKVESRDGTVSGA
For experiment [3], the target named is Cytochrome P450 2D6 (Homo sapiens, UniProt P10635). The experiment can be described thus: Inhibition of CYP2D6.
Cytochrome P450 2D6, sequence (P10635 whole entry): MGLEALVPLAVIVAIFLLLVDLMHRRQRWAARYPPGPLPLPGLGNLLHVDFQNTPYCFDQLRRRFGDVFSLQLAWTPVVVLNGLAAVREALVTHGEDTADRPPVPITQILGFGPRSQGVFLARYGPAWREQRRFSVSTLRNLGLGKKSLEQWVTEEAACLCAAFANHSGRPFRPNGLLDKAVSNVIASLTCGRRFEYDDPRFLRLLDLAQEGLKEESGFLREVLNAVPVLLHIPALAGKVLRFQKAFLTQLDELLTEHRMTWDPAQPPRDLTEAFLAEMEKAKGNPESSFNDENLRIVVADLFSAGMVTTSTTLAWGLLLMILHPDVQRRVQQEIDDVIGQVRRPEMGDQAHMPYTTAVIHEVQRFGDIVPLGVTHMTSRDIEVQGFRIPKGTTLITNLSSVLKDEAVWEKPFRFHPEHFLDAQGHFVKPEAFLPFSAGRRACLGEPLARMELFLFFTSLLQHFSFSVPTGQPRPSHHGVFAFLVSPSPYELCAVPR

pIC50: −log10 of the molar value.

For `O=C(N[C@@H](Cc1c[nH]c2ccc(O)cc12)c1cscn1)c1ccc2c(c1)nc(-c1ccoc1)n2C1CCCCC1` [1-cyclohexyl-2-(furan-3-yl)-N-((S)-2-(5-hydroxy-1H-indol-3-yl)-1-(thiazol-4-yl)ethyl)-1H-benzo[d]imidazole-5-carboxamide], the pIC50 in experiment [1] was below 4.52.
As to `O=C(O)/C=C/c1ccc(NC(=O)C2(NC(=O)c3ccc4c(c3)nc(-c3ccoc3)n4C3CCCCC3)CCCC2)cc1` [3-(4-(1-(1-cyclohexyl-2-(furan-3-yl)-1H-benzo[d]imidazole-5-carboxamido)cyclopentanecarboxamido)phenyl)acrylic acid], the negative-log IC50 (pIC50) in experiment [1], in experiment [2] and in experiment [3] was below 4.52 throughout.
As to `O=C(O)/C=C/c1ccc(NC(=O)C2(NC(=O)c3ccc4c(c3)nc(-c3ccccn3)n4C3CCCCC3)CCCC2)cc1` [3-(4-(1-(1-cyclohexyl-2-(pyridin-2-yl)-1H-benzo[d]imidazole-5-carboxamido)cyclopentanecarboxamido)phenyl)acrylic acid], the pIC50 in experiment [1], in experiment [2] and in experiment [3] was below 4.52 in each case.
